Results as given in patent US20260198493A1, “HYDRAZIDE COMPOUND AND AGRICULTURAL/HORTICULTURAL FUNGICIDE” (Nippon Soda Co., Ltd., priority 2022, published 2026).

Experiments:
[1] = system: Venturia inaequalis; test: Control test of apple scab disease (sprayed young apple seedlings); assay type: in vivo; details: 125 ppm by mass spray, 12 to 14 days after inoculation
[2] = system: Botrytis cinerea; test: Control test of cucumber gray mold (sprayed young cucumber seedlings); assay type: in vivo; details: 96 h, four days after inoculation; for pest or weed control at 25 ppm: 25 ppm by mass spray; for pest or weed control at 125 ppm: 125 ppm by mass spray
Experimental: Then, the drug liquid was sprayed onto young cucumber seedlings cultivated in a nursery pot (variety “Jihai”-based, cotyledon stage), and then air-dried. […] They were left still in a moist room at 20° C. Four days after inoculation, leaves of the young cucumber seedlings were visually observed, and the control value was calculated from the lesion area ratio in accordance with the following equation. [formula]

[3] = system: Botrytis cinerea; assay type: cell-based; details: 120 h, 25 ppm by volume, Vogel medium, 20° C., five days, dark, read-out: growth inhibition ratio
[4] = system: Erysiphe graminis f.sp.tritici; test: Control test of wheat powdery mildew disease (sprayed young wheat seedlings); assay type: in vivo; details: Blumeria graminis, 144 h, 125 ppm by mass spray, six days after inoculation
[5] = system: Glomerella cingulata; test: Fungicidal effect test against fungi causing grape ripe rot disease; details: Colletotrichum gloeosporioides, 72 h, read-out: growth inhibition ratio
[6] = system: Fusarium graminearum; test: microbe, parasite or virus in culture; assay type: cell-based; details: 96 h, read-out: growth inhibition ratio
[7] = system: Colletotrichum acutatum; test: Fungicidal effect test against fungi causing apple anthracnose; details: 96 h, read-out: growth inhibition ratio

Cc1ccc(CN(NC(=O)c2cc(C)nnc2Oc2cccc(C3CC3)c2F)C(=O)OC(C)(C)C)c(C)c1 [b-22]
≥ 75%: pest or weed control at 125 ppm [1] | pest or weed control at 25 ppm [2] | pest or weed control at 125 ppm [2] | inhibition of growth at 25 ppm [3] | pest or weed control at 125 ppm [4] | inhibition of growth at 25 ppm [5] | inhibition of growth at 25 ppm [6] | inhibition of growth at 25 ppm [7]

COC(=O)N(Cc1ccc(C)cc1C)NC(=O)c1cc(C)nnc1Oc1cccc(Cl)c1F [b-23, Methyl 2-(3-(3-chloro-2-fluorophenoxy)-6-methylpyridazine-4-carbonyl)-1-(2,4-dimethylbenzyl)hydrazine-1-carboxylate]
≥ 75%: pest or weed control at 125 ppm [1] | pest or weed control at 25 ppm [2] | pest or weed control at 125 ppm [2] | inhibition of growth at 25 ppm [3] | pest or weed control at 125 ppm [4] | inhibition of growth at 25 ppm [5] | inhibition of growth at 25 ppm [6] | inhibition of growth at 25 ppm [7]

COC(=O)N(Cc1ccc(C)cc1C)NC(=O)c1cc(Cl)nnc1Oc1cccc(C2CC2)c1F [b-28]
≥ 75%: pest or weed control at 125 ppm [1] | pest or weed control at 25 ppm [2] | pest or weed control at 125 ppm [2] | inhibition of growth at 25 ppm [3] | pest or weed control at 125 ppm [4] | inhibition of growth at 25 ppm [5] | inhibition of growth at 25 ppm [6] | inhibition of growth at 25 ppm [7]

COC(=O)N(Cc1ccc(C)cc1C)NC(=O)c1cc(C)ncc1Oc1cccc(Br)c1 [b-31]
≥ 75%: pest or weed control at 125 ppm [1] | pest or weed control at 25 ppm [2] | pest or weed control at 125 ppm [2] | inhibition of growth at 25 ppm [3] | pest or weed control at 125 ppm [4] | inhibition of growth at 25 ppm [5] | inhibition of growth at 25 ppm [6] | inhibition of growth at 25 ppm [7]

CCOC(=O)N(Cc1ccc(C)cc1C)NC(=O)c1cc(C)ncc1Oc1cccc(C2CC2)c1F [b-33]
≥ 75%: pest or weed control at 125 ppm [1] | pest or weed control at 125 ppm [2] | inhibition of growth at 25 ppm [3] | pest or weed control at 125 ppm [4] | inhibition of growth at 25 ppm [5] | inhibition of growth at 25 ppm [6] | inhibition of growth at 25 ppm [7]

COC(=O)N(Cc1ccc(Cl)cc1C)NC(=O)c1cc(C)nnc1Oc1cccc(C2CC2)c1F [b-34]
≥ 75%: pest or weed control at 125 ppm [1] | pest or weed control at 25 ppm [2] | pest or weed control at 125 ppm [2] | inhibition of growth at 25 ppm [3] | pest or weed control at 125 ppm [4] | inhibition of growth at 25 ppm [5] | inhibition of growth at 25 ppm [6] | inhibition of growth at 25 ppm [7]

COC(=O)N(Cc1ccc(C)cc1C)NC(=O)c1cc(C)nnc1Oc1cccc(C(F)(F)F)c1F [b-36]
≥ 75%: pest or weed control at 125 ppm [1] | pest or weed control at 25 ppm [2] | pest or weed control at 125 ppm [2] | inhibition of growth at 25 ppm [3] | pest or weed control at 125 ppm [4] | inhibition of growth at 25 ppm [5] | inhibition of growth at 25 ppm [6] | inhibition of growth at 25 ppm [7]

COC(=O)N(Cc1ccc(C)cc1C)NC(=O)c1cc(C)nnc1Oc1cccc(Br)c1F [b-38]
≥ 75%: pest or weed control at 125 ppm [1] | pest or weed control at 25 ppm [2] | pest or weed control at 125 ppm [2] | inhibition of growth at 25 ppm [3] | pest or weed control at 125 ppm [4] | inhibition of growth at 25 ppm [5] | inhibition of growth at 25 ppm [6] | inhibition of growth at 25 ppm [7]

COC(=O)N(Cc1ccc(C)cc1C)NC(=O)c1nc(C)ncc1Oc1cccc(C2CC2)c1F [b-42, Methyl 2-(5-(3-cyclopropyl-2-fluorophenoxy)-2-methylpyrimidine-4-carbonyl)-1-(2,4-dimethylbenzyl)hydrazine-1-carboxylate]
≥ 75%: pest or weed control at 125 ppm [1] | pest or weed control at 25 ppm [2] | pest or weed control at 125 ppm [2] | inhibition of growth at 25 ppm [3] | pest or weed control at 125 ppm [4] | inhibition of growth at 25 ppm [5] | inhibition of growth at 25 ppm [6] | inhibition of growth at 25 ppm [7]

CCOC(=O)N(Cc1ccc(C)cc1C)NC(=O)c1nc(C)ncc1Oc1cccc(C2CC2)c1F [b-43]
≥ 75%: pest or weed control at 125 ppm [1] | pest or weed control at 25 ppm [2] | pest or weed control at 125 ppm [2] | inhibition of growth at 25 ppm [3] | pest or weed control at 125 ppm [4] | inhibition of growth at 25 ppm [5] | inhibition of growth at 25 ppm [6] | inhibition of growth at 25 ppm [7]

COC(=O)N(Cc1ccc(Br)cc1C)NC(=O)c1cc(C)nnc1Oc1cccc(C2CC2)c1F [b-45]
≥ 75%: pest or weed control at 125 ppm [1] | pest or weed control at 25 ppm [2] | pest or weed control at 125 ppm [2] | inhibition of growth at 25 ppm [3] | pest or weed control at 125 ppm [4] | inhibition of growth at 25 ppm [5] | inhibition of growth at 25 ppm [6] | inhibition of growth at 25 ppm [7]

COC(=O)N(Cc1ccc(C)cc1Cl)NC(=O)c1cc(C)nnc1Oc1cccc(C2CC2)c1F [b-46]
≥ 75%: pest or weed control at 125 ppm [1] | pest or weed control at 25 ppm [2] | pest or weed control at 125 ppm [2] | inhibition of growth at 25 ppm [3] | pest or weed control at 125 ppm [4] | inhibition of growth at 25 ppm [5] | inhibition of growth at 25 ppm [6] | inhibition of growth at 25 ppm [7]

COC(=O)N(Cc1ccc(C)cc1C)NC(=O)c1cc(C)nnc1Oc1cccc(C(F)(F)F)c1 [b-53]
≥ 75%: pest or weed control at 125 ppm [1] | pest or weed control at 25 ppm [2] | pest or weed control at 125 ppm [2] | inhibition of growth at 25 ppm [3] | pest or weed control at 125 ppm [4] | inhibition of growth at 25 ppm [5] | inhibition of growth at 25 ppm [6] | inhibition of growth at 25 ppm [7]

COC(=O)N(Cc1ccc(C)cc1C)NC(=O)c1cc(C)nnc1Oc1cccc(Br)c1 [b-55]
≥ 75%: pest or weed control at 125 ppm [1] | pest or weed control at 25 ppm [2] | pest or weed control at 125 ppm [2] | inhibition of growth at 25 ppm [3] | pest or weed control at 125 ppm [4] | inhibition of growth at 25 ppm [5] | inhibition of growth at 25 ppm [6] | inhibition of growth at 25 ppm [7]

COC(=O)N(Cc1ccc(C)cc1C)NC(=O)c1cc(Br)ncc1Oc1cccc(C2CC2)c1F [b-67]
≥ 75%: pest or weed control at 125 ppm [1] | pest or weed control at 25 ppm [2] | pest or weed control at 125 ppm [2] | inhibition of growth at 25 ppm [3] | pest or weed control at 125 ppm [4] | inhibition of growth at 25 ppm [5] | inhibition of growth at 25 ppm [6] | inhibition of growth at 25 ppm [7]

COCOc1ccc(CN(NC(=O)c2cc(C)ncc2Oc2cccc(C3CC3)c2F)C(=O)OC)c(C)c1 [b-74]
≥ 75%: pest or weed control at 125 ppm [1] | pest or weed control at 25 ppm [2] | pest or weed control at 125 ppm [2] | inhibition of growth at 25 ppm [3] | pest or weed control at 125 ppm [4] | inhibition of growth at 25 ppm [5] | inhibition of growth at 25 ppm [6] | inhibition of growth at 25 ppm [7]

COC(=O)N(Cc1ccc(Cl)cc1Cl)NC(=O)c1cc(C)ncc1Oc1cccc(C2CC2)c1F [b-75]
≥ 75%: pest or weed control at 125 ppm [1] | pest or weed control at 25 ppm [2] | pest or weed control at 125 ppm [2] | inhibition of growth at 25 ppm [3] | pest or weed control at 125 ppm [4] | inhibition of growth at 25 ppm [5] | inhibition of growth at 25 ppm [6] | inhibition of growth at 25 ppm [7]

COC(=O)N(Cc1ccc(Br)cc1C)NC(=O)c1cc(C)ncc1Oc1cccc(C2CC2)c1F [b-76]
≥ 75%: pest or weed control at 125 ppm [1] | pest or weed control at 25 ppm [2] | pest or weed control at 125 ppm [2] | inhibition of growth at 25 ppm [3] | pest or weed control at 125 ppm [4] | inhibition of growth at 25 ppm [5] | inhibition of growth at 25 ppm [6] | inhibition of growth at 25 ppm [7]
